Values of other authors as cited in patent publication US20110160463A1, “PROCESS FOR MAKING SUBSTITUTED 2-AMINO-THIAZOLONES” (Amgen Inc., priority 2008, published 2011).

How the values were obtained:
[1] = biological target: T1, 11βHSD1 (Homo sapiens, UniProt P28845); conditions: healthy human volunteers
T1 construct: Hepatic insulin sensitivity was improved in healthy human volunteers; host or cells: endogenous enzyme in human volunteers (liver)
T1 sequence (P28845 whole entry): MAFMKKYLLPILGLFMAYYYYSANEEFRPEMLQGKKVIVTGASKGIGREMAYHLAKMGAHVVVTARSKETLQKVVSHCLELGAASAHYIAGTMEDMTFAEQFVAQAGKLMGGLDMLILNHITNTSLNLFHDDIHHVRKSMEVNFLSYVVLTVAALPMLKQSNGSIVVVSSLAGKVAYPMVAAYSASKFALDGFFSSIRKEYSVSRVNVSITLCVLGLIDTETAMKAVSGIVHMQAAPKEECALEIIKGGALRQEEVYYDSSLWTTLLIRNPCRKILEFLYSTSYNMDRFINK

[2] = tested on: bone nodule formation
[3] = biological target: T2, 11βHSD1 (Homo sapiens, UniProt P28845); conditions: ingestion, normal subjects
T2 construct: reduce the intraocular pressure by 20% in normal subjects; host or cells: endogenous enzyme in living subjects (eye)
T2 sequence (P28845 whole entry): as above

- hepatic insulin sensitivity [1]: improved
- reduction of the intraocular pressure [3]: 20%
Compound: CC1(C)[C@@H](OC(=O)CCC(=O)O)CC[C@]2(C)[C@H]3C(=O)C=C4[C@@H]5C[C@@](C)(C(=O)O)CC[C@]5(C)CC[C@@]4(C)[C@]3(C)CC[C@@H]12 [carbenoxolone]
- negative effect (of glucocorticoids) on bone nodule formation [2]: blocked
